From patent publication US12582654B2, “Cyano-substituted pyridine and cyano-substituted pyrimidine compound and preparation method therefor and application thereof” (BEIJING SCITECH-MQ PHARMACEUTICALS LIMITED, priority 2019, dated 2026)

How the values were obtained:
FGFR4 kinase = FGFR4 kinase (Homo sapiens, UniProt P22455); test: Inhibition of FGFR4 kinase activity (ULight-labeled JAK-1 peptide, EU665/EU615 reading); format: biochemical; settings: FGFR4 kinase 3.85 nM, ATP 100 μM, enzymatic reaction 2 hours
Description: (§1) Assay of activity of small molecule compounds on inhibiting FGFR4 kinase and FGFR4 V550L mutant kinase. The assay method was as follows:
(§2) 1) Dilution of Compounds:
(§3) In a 96-well plate a, the compounds were serially diluted 3-fold with DMSO to form 11 concentrations, and the 12th concentration was pure DMSO (as a positive control); In a new 96-well plate b, the above solutions were diluted 25-fold with ultrapure water (DMSO concentration was 4%).
(§4) 2) Transferring Compounds to a 384-Well Plate:
(§5) The above solutions of compounds diluted with ultrapure water in the 96-well plate b were pipetted into corresponding wells of a 384-well plate.
(§6) 3) Adding 4× kinase solution: 2.5 μl of the above 4× kinase solutions were pipetted with a multi-channel pipette into corresponding reaction wells of the 384-well plate, and the mixture was mixed well and pre-reacted at room temperature for 5 minutes.
(§7) 4) Adding 2× substrate/ATP mixture: 5 μl of the above 2× substrate/ATP mixtures were pipetted with a multi-channel pipette into corresponding reaction wells of the 384-well plate.
(§8) 5) Negative control: negative control wells were set up in the 384-well plate by adding 2.5 μl of 4× substrate, 2.5 μl of 4× enzyme solution, 2.5 μl of 1× kinase Assay Buffer and 2.5 μl of ultrapure water containing 4% DMSO to each well.
(§9) 6) Centrifuging, mixing well, and reacting at room temperature in the dark for 2 hours.
(§10) 7) Terminating the Enzymatic Reaction:
(§11) 5 μl of the above 4× stop solutions were pipetted into corresponding wells of the 384-well plate, and the mixture was centrifuged, mixed well, and then reacted at room temperature for 5 minutes.
(§12) 8) Development of the Reaction:
(§13) 5 μl of the above 4× detection solutions were pipetted into corresponding wells of the 384-well plate, and the mixture was centrifuged, mixed well, and then reacted at room temperature for 1 hour.
(§14) 9) The 384-well plate was placed into a plate reader, and the signal was detected using the appropriate program.
(§15) 10) Analysis of IC50: Reading of well=10000*EU665 value/EU615 value Inhibition rate=(reading of positive control well−reading of assay well)/(reading of positive control well−reading of negative control well)*100%
(§16) The corresponding IC50 can be calculated by inputting the drug concentrations and corresponding inhibition rates into GraphPad Prism 5 and processing.
Assay Conditions for Screening FGFR4 Kinase Activity Inhibitory Molecule:
The final concentration of FGFR4 kinase in the reaction system was 3.85 nM, the final concentration of ATP was 100 μM, the final concentration of substrate ULight™-labeled JAK-1 (Tyr1023) Peptide was 100 nM, and the time for enzymatic reaction was 2 hours.
The highest final concentration of the compound in the reaction system was 2.5 μM. After serial 3-fold dilution, there were 11 concentrations in total, and the lowest final concentration was 0.042 nM. The final concentration of DMSO was 1%.

FGFR4 V550L kinase = FGFR4 V550L kinase (Homo sapiens, UniProt P22455, V550L); test: Inhibition of FGFR4 V550L mutant kinase activity (ULight-labeled PolyGT, EU665/EU615 reading); format: biochemical; settings: FGFR4 V550L kinase 1 nM, ATP 10 μM, enzymatic reaction 2 hours
Description: as §1, §2, §3, §4, §5, §6, §7, §8, §9, §10, §11, §12, §13, §14, §15, §16
Assay Conditions for Screening FGFR4 V550L Kinase Activity Inhibitory Molecule:
The final concentration of FGFR4 V550L kinase in the reaction system was 1 nM, the final concentration of ATP was 10 μM, the final concentration of substrate ULight™-labeled PolyGT was 100 nM, and the time for enzymatic reaction was 2 hours.
The highest final concentration of the compound in the reaction system was 2.5 μM. After seral 3-fold dilution, there were 11 concentrations in total, and the lowest final concentration was 0.042 nM. The final concentration of DMSO was 1%.

Ba/F3 ETV6-FGFR4 cells = target: T1, Ba/F3 ETV6-FGFR4 cells (Homo sapiens, UniProt P22455); test: Inhibition of cell proliferation (CCK-8), Ba/F3 ETV6-FGFR4 cells; format: cell-based; settings: 72 hours of incubation, read-out: Ba/F3 ETV6-FGFR4 IC50
T1 construct: fused on or other part: N-terminal part of ETV6 (TEL), the oligomerising partner that makes the FGFR4 kinase constitutively active; P41212 (Transcription factor ETV6)
Description: (§17) Compounds were assayed for inhibiting cell proliferation, and the specific method was as follows: • 1. Cells were cultured to a logarithmic growth phase, pipetted evenly, transferred to a 15 mL centrifuge tube, and centrifuged at 1000 rpm at room temperature for 4 minutes; • 2. The supernatant was discarded; 5 mL of complete medium was added and pipetted evenly; 10 μL of cell suspension was weighed, mixed well with 10 μL of 0.4% trypan blue, and counted under a cell counter; the proportion of living cells was ensured to be above 90%; • 3. The cell suspension was seeded into a 96-well plate (80 μL of cell suspension per well) according to the conditions shown in Table 5; in the outer 36 wells of the 96-well plate, no cells were added but only sterile water was added; only the inner 60 wells were used for cell assay and control; • 4. 5× compound dilution: the compounds were serially diluted 4-fold to give a total of 9 concentrations; 80-fold overall dilution was completed with complete medium, the resulting concentration was 5 times the final drug concentration, and DMSO concentration was 1.25%; • 5. 20 μL of the corresponding compounds with different concentrations were added to each well of assay wells of the 96-well plate; 20 μL of complete medium was added to positive and negative control wells and shaken well; and the final concentration of DMSO in each well was 0.25%; • 6. After 72 hours of incubation, 10 μL of CCK-8 reagent was added to each well and further incubated at 37° C. for 1-2 hours; and the OD value was read at 450 nm; 7. Cell survival rate (%)=[(As−Ab)/(Ac−Ab)]*100% • As: Assay well (medium containing cells, CCK-8, compound) • Ac: Control well (medium containing cells, CCK-8) • Ab: Blank well (medium without cell and compound, CCK-8) • 8. The values were imported into Graphpad Prism 5 software for IC50 calculation.

[1] = target: T2, Ba/F3 ETV6-FGFR4-V550L cells (Homo sapiens, UniProt P22455, V550L, cells depend on it); test: Inhibition of cell proliferation (CCK-8), Ba/F3 ETV6-FGFR4-V550L cells; format: cell-based; settings: 72 hours of incubation, read-out: Ba/F3 ETV6-FGFR4-V550L IC50
T2 construct: fused on or other part: N-terminal part of ETV6 (TEL), the oligomerising partner of the fusion; already named as the first entry; P41212 (Transcription factor ETV6)
Description: as §17

T1 sequence (P22455 whole entry, change not shown, the tested form may be a part): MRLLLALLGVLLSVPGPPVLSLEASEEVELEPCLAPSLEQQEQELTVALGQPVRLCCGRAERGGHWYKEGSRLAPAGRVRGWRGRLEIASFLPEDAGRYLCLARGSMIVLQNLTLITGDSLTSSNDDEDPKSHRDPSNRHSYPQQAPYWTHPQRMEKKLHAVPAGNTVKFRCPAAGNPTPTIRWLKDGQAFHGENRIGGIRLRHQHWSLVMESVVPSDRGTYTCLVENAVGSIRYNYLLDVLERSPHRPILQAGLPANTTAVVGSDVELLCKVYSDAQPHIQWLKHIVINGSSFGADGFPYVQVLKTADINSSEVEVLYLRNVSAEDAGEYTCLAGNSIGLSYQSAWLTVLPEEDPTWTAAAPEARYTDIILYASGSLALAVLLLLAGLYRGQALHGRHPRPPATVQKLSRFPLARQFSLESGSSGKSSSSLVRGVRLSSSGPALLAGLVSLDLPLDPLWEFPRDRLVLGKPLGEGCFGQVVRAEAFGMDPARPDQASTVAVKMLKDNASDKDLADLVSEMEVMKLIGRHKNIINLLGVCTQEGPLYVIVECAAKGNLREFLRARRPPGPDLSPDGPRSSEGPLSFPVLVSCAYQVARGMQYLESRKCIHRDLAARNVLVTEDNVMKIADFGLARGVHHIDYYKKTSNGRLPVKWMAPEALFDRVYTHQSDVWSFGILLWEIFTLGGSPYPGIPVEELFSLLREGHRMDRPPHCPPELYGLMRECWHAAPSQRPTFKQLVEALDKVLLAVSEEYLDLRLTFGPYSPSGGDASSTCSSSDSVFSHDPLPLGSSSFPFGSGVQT
Sequence of FGFR4 V550L kinase (P22455 22-802 V550L): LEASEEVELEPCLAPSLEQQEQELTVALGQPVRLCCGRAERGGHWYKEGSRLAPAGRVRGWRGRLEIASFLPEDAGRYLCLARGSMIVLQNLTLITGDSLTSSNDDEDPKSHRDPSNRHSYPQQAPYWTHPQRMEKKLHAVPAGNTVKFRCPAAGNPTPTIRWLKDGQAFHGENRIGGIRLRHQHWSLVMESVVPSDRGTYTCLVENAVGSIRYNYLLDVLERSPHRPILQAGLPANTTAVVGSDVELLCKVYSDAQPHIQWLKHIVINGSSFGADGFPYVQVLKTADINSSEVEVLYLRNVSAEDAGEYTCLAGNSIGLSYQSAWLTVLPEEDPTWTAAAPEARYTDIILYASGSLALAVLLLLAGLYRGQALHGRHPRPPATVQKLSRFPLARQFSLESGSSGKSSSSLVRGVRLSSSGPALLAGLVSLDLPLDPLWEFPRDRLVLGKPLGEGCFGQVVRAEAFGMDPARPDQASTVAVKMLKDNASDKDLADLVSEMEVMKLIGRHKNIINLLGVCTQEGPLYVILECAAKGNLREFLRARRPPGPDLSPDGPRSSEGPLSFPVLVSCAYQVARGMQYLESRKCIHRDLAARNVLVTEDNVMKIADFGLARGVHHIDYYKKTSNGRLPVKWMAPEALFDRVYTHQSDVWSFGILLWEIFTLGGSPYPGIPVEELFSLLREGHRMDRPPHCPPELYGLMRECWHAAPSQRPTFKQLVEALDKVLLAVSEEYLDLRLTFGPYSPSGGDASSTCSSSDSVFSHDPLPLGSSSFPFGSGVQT
T2 sequence (P22455 whole entry V550L, the tested form may be a part): as the sequence (P22455 whole entry, change not shown, the tested form may be a part) above, with V550L counted along it
Sequence of FGFR4 kinase (P22455 22-802): as the sequence (P22455 22-802 V550L) above, with L529V counted along it

| IC50 (FGFR4 kinase) | IC50 (FGFR4 V550L kinase) | GI50 (Ba/F3 ETV6-FGFR4 cells) | GI50 [1] | Compound |
| --- | --- | --- | --- | --- |
| 10 to 50 nM | ≤ 10 nM | ≤ 10 nM | ≤ 10 nM | C=CC(=O)Nc1cc(N2CCN(C)CC2)ccc1Nc1ncc(C#N)c(Nc2ccccc2OC(C)C)n1 [Example 1, N-(2-((5-cyano-4-((2-isopropoxyphenyl)amino)pyrimidin-2-yl)amino)-5-(4-methylpiperazin-1-yl)phenyl)acrylamide] |
| 10 to 50 nM | ≤ 10 nM | ≤ 10 nM | ≤ 10 nM | C=CC(=O)Nc1cc(N2CCC(N(C)C)CC2)ccc1Nc1ncc(C#N)c(Nc2ccccc2OC(C)C)n1 [Example 2, N-(2-((5-cyano-4-((2-isopropoxyphenyl)amino)pyrimidin-2-yl)amino)-5-(4-(dimethylamino)piperidin-1-yl)phenyl) acrylamide] |
| 10 to 50 nM | ≤ 10 nM | ≤ 10 nM | ≤ 10 nM | C=CC(=O)Nc1cc(N2CCC(N3CCCC3)CC2)ccc1Nc1ncc(C#N)c(Nc2ccccc2OC(C)C)n1 [Example 3, N-(2-((5-cyano-4-((2-isopropoxyphenyl)amino)pyrimidin-2-yl)amino)-5-(4-(pyrrolidin-1-yl)piperidin-1-yl)phenyl) acrylamide] |
| 10 to 50 nM | ≤ 10 nM | ≤ 10 nM | ≤ 10 nM | C=CC(=O)Nc1cc(N2CCC(N3CCCCC3)CC2)ccc1Nc1ncc(C#N)c(Nc2ccccc2OC(C)C)n1 [Example 4, N-(5-([1,4′-bipiperidin]-1′-yl)-2-((5-cyano-4-((2-isopropoxyphenyl)amino)pyrimidin-2-yl)amino)phenyl) acrylamide] |
| 50 to 100 nM | 10 to 50 nM | ≤ 10 nM | ≤ 10 nM | C=CC(=O)Nc1cc(N2CCC(N3CCOCC3)CC2)ccc1Nc1ncc(C#N)c(Nc2ccccc2OC(C)C)n1 [Example 5, N-(2-((5-cyano-4-((2-isopropoxyphenyl)amino)pyrimidin-2-yl)amino)-5-(4-morpholinopiperidin-1-yl)phenyl) acrylamide] |
| ≤ 10 nM | ≤ 10 nM | ≤ 10 nM | ≤ 10 nM | C=CC(=O)Nc1cc(N2CCC(N3CCN(C)CC3)CC2)ccc1Nc1ncc(C#N)c(Nc2ccccc2OC(C)C)n1 [Example 6, N-(2-((5-cyano-4-((2-isopropoxyphenyl)amino)pyrimidin-2-yl)amino)-5-(4-(4-methylpiperazin-1-yl)piperidin-1-yl)phenyl) acrylamide] |
| 50 to 100 nM | 10 to 50 nM | ≤ 10 nM | 10 to 50 nM | C=CC(=O)Nc1cc(N2CCN(C)CC2)c(C)cc1Nc1ncc(C#N)c(Nc2ccccc2OC(C)C)n1 [Example 7, N-(2-((5-cyano-4-((2-isopropoxyphenyl)amino)pyrimidin-2-yl)amino)-4-methyl-5-(4-methylpiperazin-1-yl)phenyl) acrylamide] |
| 10 to 50 nM | ≤ 10 nM | ≤ 10 nM | ≤ 10 nM | C=CC(=O)Nc1cc(N2CCN(CC)CC2)c(C)cc1Nc1ncc(C#N)c(Nc2ccccc2OC(C)C)n1 [Example 8, N-(2-((5-cyano-4-((2-isopropoxyphenyl)amino)pyrimidin-2-yl)amino)-5-(4-ethylpiperazin-1-yl)-4-methylphenyl) acrylamide] |
| 10 to 50 nM | 10 to 50 nM |  |  | C=CC(=O)Nc1cc(N2CCC(N(C)C)CC2)c(C)cc1Nc1ncc(C#N)c(Nc2ccccc2OC(C)C)n1 [Example 9, N-(2-((5-cyano-4-((2-isopropoxyphenyl)amino)pyrimidin-2-yl)amino)-5-(4-(dimethylamino)piperidin-1-yl)-4-methylphenyl) acrylamide] |
| 10 to 50 nM | 10 to 50 nM | ≤ 10 nM | 10 to 50 nM | C=CC(=O)Nc1cc(N2CCC(N3CCCC3)CC2)c(C)cc1Nc1ncc(C#N)c(Nc2ccccc2OC(C)C)n1 [Example 10, N-(2-((5-cyano-4-((2-isopropoxyphenyl)amino)pyrimidin-2-yl)amino)-4-methyl-5-(4-(pyrrolidin-1-yl)piperidin-1-yl)phenyl) acrylamide] |
| 10 to 50 nM |  | 10 to 50 nM | 10 to 50 nM | C=CC(=O)Nc1cc(N2CCC(N3CCCCC3)CC2)c(C)cc1Nc1ncc(C#N)c(Nc2ccccc2OC(C)C)n1 [Example 11, N-(5-([1,4‘- bipiperidin]-1′-yl)-2-((5-cyano-4-((2-isopropoxyphenyl)amino)pyrimidin-2-yl)amino)-4-methylphenyl) acrylamide] |
| 10 to 50 nM | 10 to 50 nM |  |  | C=CC(=O)Nc1cc(N2CCC(N3CCOCC3)CC2)c(C)cc1Nc1ncc(C#N)c(Nc2ccccc2OC(C)C)n1 [Example 12, N-(2-((5-cyano-4-((2-isopropoxyphenyl)amino)pyrimidin-2-yl)amino)-4-methyl-5-(4-morpholinopiperidin-1-yl)phenyl) acrylamide] |
|  | 10 to 50 nM | ≤ 10 nM | 10 to 50 nM | C=CC(=O)Nc1cc(N2CCN(CC)CC2)ccc1Nc1ncc(C#N)c(Nc2ccc(C#N)cc2OC(C)C)n1 [Example 32, N-(2-((5-cyano-4-((4-cyano-2-isopropoxyphenyl)amino)pyrimidin-2-yl)amino)-5-(4-ethylpiperazin-1-yl)phenyl) acrylamide] |
| 10 to 50 nM |  |  |  | C=CC(=O)Nc1cc(N2CCC(N(C)C)CC2)ccc1Nc1cc(Nc2ccccc2OC(C)C)c(C#N)cn1 [Example 82, N-(2-((5-cyano-4-((2-isopropoxyphenyl)amino)pyridin-2-yl)amino)-5-(4-(dimethylamino)piperidin-1-yl)phenyl)acrylamide] |
| 10 to 50 nM |  |  |  | C=CC(=O)Nc1cc(N2CCC(N3CCN(C)CC3)CC2)ccc1Nc1cc(Nc2ccccc2OC(C)C)c(C#N)cn1 [Example 83, N-(2-((5-cyano-4-((2-isopropoxyphenyl)amino)pyridin-2-yl)amino)-5-(4-(4-methylpiperazin-1-yl)piperidin-1-yl)phenyl)acrylamide] |
| 10 to 50 nM |  |  |  | C=CC(=O)Nc1cc(N2CCN(CC)CC2)ccc1Nc1cc(Nc2ccccc2OC(C)C)c(C#N)cn1 [Example 84, N-(2-((5-cyano-4-((2-isopropoxyphenyl)amino)pyridin-2-yl)amino)-5-(4-ethylpiperazin-1-yl)phenyl)acrylamide] |
